According to PubChem BioAssay (NCI):
“And” between values parts separate entries of the source, which are not always exact repeats. Equal values may be shown once.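 Each compound was tested at five concentrations against cells in 96-well plates for 48 hours. Abbreviation: GI50, concentration required for 50% inhibition of growth. TGI denotes the concentration required for complete inhibition of growth.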

What was measured:
Assay in all cases: DTP human tumour cell line panel, 48 h
T-47D breast = tested on: T-47D breast
UO-31 renal = tested on: UO-31 renal
CCRF-CEM leukemia = tested on: CCRF-CEM leukemia
HCT-116 colon = tested on: HCT-116 colon
M14 melanoma = tested on: M14 melanoma
RPMI-8226 leukemia = tested on: RPMI-8226 leukemia
SW-620 colon = tested on: SW-620 colon
SK-OV-3 ovarian = tested on: SK-OV-3 ovarian

| SMILES | GI50 (T-47D breast) | TGI (T-47D breast) | TGI (UO-31 renal) | TGI (CCRF-CEM leukemia) | TGI (HCT-116 colon) | TGI (M14 melanoma) | TGI (RPMI-8226 leukemia) | TGI (SW-620 colon) | TGI (SK-OV-3 ovarian) | GI50 (UO-31 renal) | GI50 (CCRF-CEM leukemia) | GI50 (HCT-116 colon) | GI50 (M14 melanoma) | GI50 (RPMI-8226 leukemia) | GI50 (SW-620 colon) | GI50 (SK-OV-3 ovarian) |
| --- | --- | --- | --- | --- | --- | --- | --- | --- | --- | --- | --- | --- | --- | --- | --- | --- |
| Oc1ccc2ccccc2c1N=Nc1ccccc1 | 22.5 µM and > 100 µM | > 100 µM | > 100 µM | > 100 µM | > 100 µM | > 100 µM | > 100 µM | > 100 µM | > 100 µM | – | – | – | – | – | – | – |
| CCS/C(Nc1ccccc1)=C(\C#N)C(=O)Nc1ccc(OC)cc1 | 4.08 µM | > 100 µM | > 100 µM | > 100 µM | 16.4 µM | 87.4 µM | > 100 µM | > 100 µM | 50.2 µM | 5.49 µM | 1.83 µM | 1.95 µM | 2.27 µM | 2.52 µM | 2.55 µM | 3.28 µM |
| Oc1c(CN2CCCC2)cc(COCc2ccccc2)c2cccnc12 | 2.97 µM | 15.4 µM | 2.55 µM | 15.4 µM | 11 µM | 10.1 µM | 19.4 µM | 18.2 µM | 9.27 µM | 0.158 µM | 1.43 µM | 2.65 µM | 1.11 µM | 3.84 µM | 3.27 µM | 2.02 µM |
| O=C(NNS(=O)(=O)c1cc(C(F)(F)F)cc(C(F)(F)F)c1)c1cnn(-c2ccc(Cl)cc2)c1C(F)(F)F | 17.5 µM | 45 µM | 31.7 µM | – | 29.6 µM | 30.9 µM | 33.1 µM | 38.7 µM | 61.7 µM | 15.8 µM | – | 15.5 µM | 16.3 µM | 13.3 µM | 17.7 µM | 22.9 µM |
| C[C@@H]1CC[C@@]2(OC1)O[C@H]1C[C@H]3[C@@H]4CC=C5C[C@@H](O[C@@H]6O[C@H](CO)[C@@H](O[C@@H]7O[C@@H](CO)[C@H](O)[C@H]7O)[C@H](O)[C@H]6O[C@@H]6O[C@@H](C)[C@H](O)[C@@H](O)[C@H]6O)CC[C@]5(C)[C@H]4CC[C@]3(C)[C@H]1[C@@H]2C | 1.39 µM | 2.73 µM | 2.55 µM | 2.6 µM | 2.09 µM | 2.07 µM | 2.4 µM | 1.93 µM | 3.04 µM | 1.28 µM | 1.1 µM | – | – | 1.09 µM | 0.577 µM | 1.62 µM |
| C#Cc1ccc(NC(=O)c2ccc(/C=C/C(=O)c3nccn3C)cc2)cc1 | 0.521 µM | 2.44 µM | 0.677 µM | 1.59 µM | 0.721 µM | 0.96 µM | 0.672 µM | 1.01 µM | 24.3 µM | 0.346 µM | 0.486 µM | 0.326 µM | 0.47 µM | 0.115 µM | 0.382 µM | 0.979 µM |
| COc1ccc2c3c(c(OCCCN(C)C)nc2c1)-c1ccc(Cl)cc1C3=O | 12.5 µM | 48.3 µM | 11.1 µM | 66 µM | 3.52 µM | 24.2 µM | 56.1 µM | 12.9 µM | 26.7 µM | 1.51 µM | 7.89 µM | 1.29 µM | 11.4 µM | 15.4 µM | 1.56 µM | 12.2 µM |
| CCNCC(O)c1ccc(N)c([N+](=O)[O-])c1 (centres undefined) | – | > 100 µM | > 100 µM | > 100 µM | > 100 µM | > 100 µM | > 100 µM | > 100 µM | > 100 µM | – | – | – | – | – | – | – |
| O=C1/C(=C/c2cccs2)CCC/C1=C\c1cccs1 | 2.13 µM | > 72.8 µM | > 85.7 µM | – | > 100 µM | > 100 µM | > 100 µM | > 100 µM | 74.2 µM | > 42.7 µM | – | > 100 µM | > 100 µM | > 100 µM | > 100 µM | 26.5 µM |
| CC(=O)Oc1cccc2c1C(=O)c1c(OC(C)=O)cc(C)cc1C2=O | – | > 100 µM | – | > 100 µM | > 100 µM | > 100 µM | 43.8 µM | > 100 µM | > 100 µM | – | – | – | – | – | – | – |
| N#Cc1nc(-c2ccccc2)oc1S(=O)(=O)N1CCOCC1 | 1.78 µM | 3.84 µM | 2.89 µM | 14.6 µM | 3.42 µM | 7.42 µM | 7.89 µM | 4.84 µM | > 100 µM | 1.51 µM | 1.73 µM | 1.74 µM | 2.26 µM | 2.58 µM | 2.04 µM | 56.2 µM |
| O=Nc1c(O)ccc2ccccc12 | – | – | 4.79 µM | 11.4 µM | 5.87 µM | 3.84 µM | 7.21 µM | 8.04 µM | 28.9 µM | 1.1 µM | 3.16 µM | 2.25 µM | 1.92 µM | 2.64 µM | 2.46 µM | 15.3 µM |
| Cn1c(=O)c2[nH]c(COc3ccc(C(C)(C)C)cc3)nc2n(C)c1=O | 11.9 µM | > 100 µM | 89.5 µM | – | > 100 µM | 41.4 µM | 18.4 µM | > 100 µM | > 100 µM | 13.6 µM | – | 10.2 µM | 15 µM | 1.08 µM | 27 µM | 51.6 µM |
| CC(=O)/C(C)=N/N/C(N)=N\S(=O)(=O)c1cc(C(=O)Nc2ccccc2)c(Cl)cc1SCc1ccccc1 | > 100 µM | > 100 µM | > 100 µM | > 100 µM | > 100 µM | 3.95 µM | > 100 µM | – | > 100 µM | 29.6 µM | 98.5 µM | 0.337 µM | 1.08 µM | 7.01 µM | – | > 100 µM |
| COc1ccc(-c2ccc(-c3ccc(C(=N)N)cn3)s2)cc1Cl | – | – | 3.09 µM | – | 3.82 µM | 3.44 µM | – | 2.73 µM | 3.41 µM | 1.59 µM | – | 1.84 µM | 1.81 µM | – | 1.4 µM | 1.65 µM |
| O=[N+]([O-])c1ccc2c(N=Nc3c(O)ccc4ccccc34)c(O)cc(S(=O)(=O)O)c2c1 | – | – | 18.9 µM and 51.5 µM | 50 µM and > 100 µM | 50 µM and > 100 µM | 10.5 µM | 50 µM and > 100 µM | 50 µM and > 100 µM | 50 µM | 10.9 µM | 19.8 µM | 25.6 µM | – | 67.1 µM | 57.7 µM | – |
| CC(C)(C)CC(C)(C)c1ccc(OCCOCCSC(=N)N)cc1 | 1.68 µM | 3.54 µM | 3.91 µM | 6.02 µM | 2.83 µM | 3.39 µM | – | 3.34 µM | 7.39 µM | 1.75 µM | 2.46 µM | 1.5 µM | 1.8 µM | – | 1.65 µM | 2.74 µM |
